From PubChem BioAssay (NCI)
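Briefly, cells in 96-well plates were exposed to five compound concentrations for 48 h, and endpoints were estimated by linear interpolation. GI50 is the concentration that inhibits growth by half. The concentration for full growth arrest is given as TGI.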

How the values were obtained:
Test in all cases: NCI anticancer screen, dose series, 48 h
UACC-62 melanoma = test system: UACC-62 melanoma
SK-OV-3 ovarian = test system: SK-OV-3 ovarian
U251 CNS = test system: U251 CNS
OVCAR-3 ovarian = test system: OVCAR-3 ovarian
A549 NSCLC = test system: A549 NSCLC
SNB-19 CNS = test system: SNB-19 CNS
TK-10 renal = test system: TK-10 renal
MOLT-4 leukemia = test system: MOLT-4 leukemia
SF-295 CNS = test system: SF-295 CNS
UACC-257 melanoma = test system: UACC-257 melanoma
MALME-3M melanoma = test system: MALME-3M melanoma
HCT-15 colon = test system: HCT-15 colon
K-562 leukemia = test system: K-562 leukemia
MDA-MB-231 breast = test system: MDA-MB-231 breast
LOX IMVI melanoma = test system: LOX IMVI melanoma
786-0 renal = test system: 786-0 renal
CCRF-CEM leukemia = test system: CCRF-CEM leukemia
PC-3 prostate = test system: PC-3 prostate
CAKI-1 renal = test system: CAKI-1 renal
OVCAR-4 ovarian = test system: OVCAR-4 ovarian
HCT-116 colon = test system: HCT-116 colon
T-47D breast = test system: T-47D breast
KM12 colon = test system: KM12 colon
HOP-92 NSCLC = test system: HOP-92 NSCLC
MCF7 breast = test system: MCF7 breast
SR leukemia = test system: SR leukemia
NCI-H226 lung = test system: NCI-H226 lung
HL-60(TB) leukemia = test system: HL-60(TB) leukemia
SF-268 CNS = test system: SF-268 CNS
SNB-75 CNS = test system: SNB-75 CNS
BT-549 breast = test system: BT-549 breast
OVCAR-5 ovarian = test system: OVCAR-5 ovarian
SN12C renal = test system: SN12C renal
OVCAR-8 ovarian = test system: OVCAR-8 ovarian
SK-MEL-5 melanoma = test system: SK-MEL-5 melanoma
HT29 colon = test system: HT29 colon
SW-620 colon = test system: SW-620 colon
HOP-62 NSCLC = test system: HOP-62 NSCLC
MDA-MB-435 = test system: MDA-MB-435
COLO 205 colon = test system: COLO 205 colon
UO-31 renal = test system: UO-31 renal
NCI-H460 lung = test system: NCI-H460 lung
ACHN renal = test system: ACHN renal
EKVX NSCLC = test system: EKVX NSCLC
A498 renal = test system: A498 renal
SK-MEL-28 melanoma = test system: SK-MEL-28 melanoma
NCI-H522 lung = test system: NCI-H522 lung
NCI/ADR-RES ovarian = test system: NCI/ADR-RES ovarian
IGROV1 ovarian = test system: IGROV1 ovarian
SK-MEL-2 melanoma = test system: SK-MEL-2 melanoma
RPMI-8226 leukemia = test system: RPMI-8226 leukemia
NCI-H23 lung = test system: NCI-H23 lung
RXF 393 renal = test system: RXF 393 renal
HCC-2998 colon = test system: HCC-2998 colon
HS 578T breast = test system: HS 578T breast
M14 melanoma = test system: M14 melanoma
DU-145 prostate = test system: DU-145 prostate
SF-539 CNS = test system: SF-539 CNS
MDA-N = test system: MDA-N

## COc1cc(OC)c(C(=O)/C=C/c2cc3c(cc2OCc2ccccc2)OC(C)(C)CC3)cc1CC=C(C)C
UACC-62 melanoma
  GI50: 3.8 µM
  TGI: 10.5 µM
SK-OV-3 ovarian
  GI50: 7.42 µM
  TGI: > 25 µM
U251 CNS
  GI50: 4.03 µM
  TGI: 10.8 µM
OVCAR-3 ovarian
  GI50: 4.89 µM
  TGI: 13.1 µM
A549 NSCLC
  GI50: 8.92 µM
  TGI: > 25 µM
SNB-19 CNS
  GI50: 6.22 µM
  TGI: 17.3 µM
TK-10 renal
  GI50: 8.89 µM
  TGI: 19.6 µM
MOLT-4 leukemia
  GI50: 7.03 µM
  TGI: > 25 µM
SF-295 CNS
  GI50: 4.56 µM
  TGI: 15.8 µM
UACC-257 melanoma
  GI50: 13.1 µM
  TGI: > 25 µM
MALME-3M melanoma
  GI50: 4.89 µM
  TGI: 12.6 µM
HCT-15 colon
  GI50: 3.84 µM
  TGI: 9.68 µM
K-562 leukemia
  GI50: 4.26 µM
  TGI: > 25 µM
MDA-MB-231 breast
  GI50: 10.1 µM
  TGI: > 25 µM
LOX IMVI melanoma
  GI50: 3.25 µM
  TGI: 7.17 µM
786-0 renal
  GI50: 9.33 µM
  TGI: > 25 µM
CCRF-CEM leukemia
  GI50: 4.02 µM
  TGI: 19.3 µM
PC-3 prostate
  GI50: 5.75 µM
  TGI: > 25 µM
CAKI-1 renal
  GI50: 6.74 µM
  TGI: 16.9 µM
OVCAR-4 ovarian
  GI50: 4.06 µM
  TGI: 14.3 µM
HCT-116 colon
  GI50: 2.98 µM
  TGI: 6.41 µM
T-47D breast
  GI50: 3.74 µM
  TGI: 19.1 µM
KM12 colon
  GI50: 3.85 µM
  TGI: 8.63 µM
HOP-92 NSCLC
  GI50: 3.52 µM
  TGI: 19.9 µM
MCF7 breast
  GI50: 3.08 µM
  TGI: 11.2 µM
SR leukemia
  GI50: 2.77 µM
  TGI: 22.8 µM
NCI-H226 lung
  GI50: 6.61 µM
  TGI: 22.1 µM
HL-60(TB) leukemia
  GI50: 5.43 µM
  TGI: 17.1 µM
SF-268 CNS
  GI50: 4.82 µM
  TGI: 15.2 µM
SNB-75 CNS
  GI50: 2.44 µM
  TGI: 13.1 µM
BT-549 breast
  GI50: 4.2 µM
  TGI: 12.3 µM
OVCAR-5 ovarian
  GI50: 13.4 µM
  TGI: > 25 µM
SN12C renal
  GI50: 7.36 µM
  TGI: > 25 µM
OVCAR-8 ovarian
  GI50: 4.14 µM
  TGI: > 25 µM
SK-MEL-5 melanoma
  GI50: 3.33 µM
  TGI: 6.53 µM
HT29 colon
  GI50: 3.57 µM
  TGI: 8.92 µM
SW-620 colon
  GI50: 4.31 µM
  TGI: 10.2 µM
HOP-62 NSCLC
  GI50: 6.78 µM
  TGI: 13.5 µM
MDA-MB-435
  GI50: 4.54 µM
  TGI: 18.2 µM
COLO 205 colon
  GI50: 3.97 µM
  TGI: 8.9 µM
UO-31 renal
  GI50: 13 µM
  TGI: > 25 µM
NCI-H460 lung
  GI50: 4.38 µM
  TGI: 11.8 µM
ACHN renal
  GI50: 5.42 µM
  TGI: 14.5 µM
EKVX NSCLC
  GI50: 6.73 µM
  TGI: 22.6 µM
A498 renal
  GI50: 5.42 µM
  TGI: 21.8 µM
SK-MEL-28 melanoma
  GI50: 4.07 µM
  TGI: 9.23 µM
NCI-H522 lung
  GI50: 7.85 µM
  TGI: > 25 µM
NCI/ADR-RES ovarian
  GI50: 6.89 µM
  TGI: > 25 µM
IGROV1 ovarian
  GI50: 15 µM
  TGI: > 25 µM
SK-MEL-2 melanoma
  GI50: 6.84 µM
  TGI: > 25 µM
RPMI-8226 leukemia
  GI50: 2.86 µM
  TGI: 11.6 µM
NCI-H23 lung
  GI50: 6.77 µM
  TGI: > 25 µM
RXF 393 renal
  GI50: 5.91 µM
  TGI: 17.1 µM
HCC-2998 colon
  GI50: 8.91 µM
  TGI: > 25 µM
HS 578T breast
  GI50: 3.05 µM
  TGI: 16.7 µM
M14 melanoma
  GI50: 3.63 µM
  TGI: 9.43 µM
DU-145 prostate
  GI50: 5.95 µM
  TGI: > 25 µM
SF-539 CNS
  GI50: 4.53 µM
  TGI: 8.8 µM

## Clc1ccc(C2=NN=C3C(c4ccccc4)=Nc4ccccc4N3C2)cc1
UACC-62 melanoma
  TGI: > 100 µM
SK-OV-3 ovarian
  TGI: > 100 µM
U251 CNS
  TGI: > 100 µM
OVCAR-3 ovarian
  TGI: > 20.1 µM
A549 NSCLC
  TGI: > 100 µM
SNB-19 CNS
  TGI: > 100 µM
TK-10 renal
  TGI: > 50.2 µM
MDA-N
  TGI: > 100 µM
MOLT-4 leukemia
  TGI: > 23.2 µM
SF-295 CNS
  TGI: > 100 µM
UACC-257 melanoma
  TGI: > 100 µM
MALME-3M melanoma
  TGI: > 82 µM
HCT-15 colon
  TGI: > 100 µM
K-562 leukemia
  TGI: > 100 µM
MDA-MB-231 breast
  TGI: > 100 µM
LOX IMVI melanoma
  TGI: > 100 µM
786-0 renal
  TGI: > 100 µM
CCRF-CEM leukemia
  TGI: 15.2 µM
PC-3 prostate
  TGI: > 100 µM
CAKI-1 renal
  TGI: > 100 µM
OVCAR-4 ovarian
  TGI: > 43.9 µM
HCT-116 colon
  TGI: > 100 µM
KM12 colon
  TGI: > 100 µM
HOP-92 NSCLC
  TGI: > 93.2 µM
MCF7 breast
  TGI: > 100 µM
SR leukemia
  TGI: > 21.9 µM
NCI-H226 lung
  TGI: > 100 µM
HL-60(TB) leukemia
  TGI: 17.6 µM
SF-268 CNS
  TGI: > 93.9 µM
BT-549 breast
  TGI: > 100 µM
OVCAR-5 ovarian
  TGI: > 30.6 µM
SN12C renal
  TGI: > 100 µM
OVCAR-8 ovarian
  TGI: > 100 µM
SK-MEL-5 melanoma
  TGI: 16.5 µM
HT29 colon
  TGI: > 25.8 µM
SW-620 colon
  TGI: > 100 µM
HOP-62 NSCLC
  TGI: > 100 µM
MDA-MB-435
  TGI: > 100 µM
COLO 205 colon
  TGI: > 100 µM
UO-31 renal
  TGI: > 80 µM
ACHN renal
  TGI: > 100 µM
EKVX NSCLC
  TGI: > 27.1 µM
A498 renal
  TGI: > 100 µM
SK-MEL-28 melanoma
  TGI: > 100 µM
NCI-H522 lung
  TGI: 8.17 µM
NCI/ADR-RES ovarian
  TGI: > 100 µM
IGROV1 ovarian
  TGI: > 100 µM
SK-MEL-2 melanoma
  TGI: > 100 µM
RPMI-8226 leukemia
  TGI: > 29.4 µM
NCI-H23 lung
  TGI: > 100 µM
RXF 393 renal
  TGI: > 46.2 µM
HCC-2998 colon
  TGI: > 100 µM
HS 578T breast
  TGI: 31.6 µM
M14 melanoma
  TGI: > 25.8 µM
DU-145 prostate
  TGI: > 41.9 µM
SF-539 CNS
  TGI: > 100 µM
